Measured values reported in PubChem BioAssay AID2060492 (Molecular Pharmacology Branch, DTP, NCI, 2025).

Test system: 695427-040-R-J1-PDC complex spheroids, viability percent T/C
Test: Anticancer human tumor 695427-040-R-J1-PDC patient-derived colon adenocarcinoma cell line growth inhibition [GQUAD]
Settings: for IC50: curve of first compound; for viability, T/C: stronger effect = lower value
Source text: DNA G-quadruplex Stabilizer Agents in Combinations in Complex Spheroids
A high-throughput screen of multi-cell type tumor spheroids was designed to identify active combinations of DNA G-quadruplex stabilizer agents and targeted small molecules. Complex spheroids include a stromal component modeled by human endothelial cells (HUVEC) and fibroblasts modeled by human mesenchymal stem cells (MSCs). The concentration ranges selected for each drug and investigational agent were based upon clinically achievable concentrations if the clinical Cmax of the agent was known.
Compounds. The drugs and investigational agents: pidnarulex (CX-5461; NSC782164), APTO-253 (NSC789042), BRACO-19 (NSC847499), peposertib (NSC802822), ceralasertib (NSC780249), elimusertib (NSC800525), camonsertib (NSC841442), AZD-1390 (NSC803789), olaparib (NSC753686), talazoparib (NSC767125), ART-558 (NSC835418), sotorasib (NSC818433), MRTX-1133 (NSC836407), SN-38 (NSC673596), topotecan (NSC609699), etoposide (NSC141540), doxorubicin (NSC123127), gemcitabine (NSC613327), 5-fluorouracil (NSC19893), paclitaxel (NSC125973), vemurafenib (NSC761431), panobinostat (NSC761190), R-306465 (JNJ-16241199; NSC773264), adavosertib (NSC754352), TP-3654 (NSC805149), carboplatin (NSC241240), KSQ-4279 (NSC840948), and staurosporine (NSC755774) were obtained from the National Cancer Institute (NCI) Developmental Therapeutics Program Chemical Repository (34). The FDA-approved anticancer drug set is available from the NCI Developmental Therapeutics Program. […] The stock solutions were prepared in dimethyl sulfoxide (DMSO, Sigma-Aldrich, St. Louis, MO, cat. D2650) at 800-fold the tested concentration and stored at -70 degrees C prior to their use. All drugs and investigational agents were tested over a range starting from a high concentration at or near the clinical Cmax and decreasing in half-log increments. If the clinical Cmax for an agent had not been determined, the highest concentration tested was 10 microM.
2.3 Cell Culture. All cells were maintained in an incubator at 37 degrees C and 5% CO2 with 95% humidity. The PDC lines were cultured according to standard operating procedures established by the NCI PDMR. All PDCs were thawed and cultured in Matrigel-coated flasks prepared with a working solution of 1X Ham's F-12 nutrient mix, without supplementation (Invitrogen, cat. 11765054), 100 U/mL penicillin-streptomycin (Invitrogen, cat. 15140122), and 2.5% Matrigel (Corning Inc., cat. 354248) for the first three passages. The 857933-349-R-J2-PDC line was cultured in 6C/Colon 1B media, which includes advanced DMEM/F-12 (Thermo Fisher Scientific, cat. 12634028), 10 mM HEPES (Thermo Fisher Scientific, cat. 15630080), 1X GlutaMAX supplement (Thermo Fisher Scientific, cat. 35050061), 0.1 mg/mL primocin (InvivoGen, cat. ant-pm-2), 10% defined fetal bovine serum, heat inactivated (HyClone Laboratories Inc., cat. SH30070.03HI), 50% L-WRN conditioned media (ATCC, cat. CRL-3276), 1.25 mM N-Acetyl-L-cysteine (Sigma-Aldrich, cat. A9165), 10 mM nicotinamide (Sigma-Aldrich, cat. N0636), 1X B-27 supplement (Thermo Fisher Scientific, cat. 17504044), 1X N-2 supplement (Thermo Fisher Scientific, cat. 17502048), 10 microM Y-27632 dihydrochloride (Tocris Bioscience, cat. 1254), and 50 ng/mL human EGF recombinant protein (Thermo Fisher Scientific, cat. PHG0311). The 485176-168-R4-J1-PDC line was cultured in Panc media, which includes all 6C/Colon 1B media components plus 100 ng/mL human FGF-10 (Thermo Fisher Scientific, cat. 100-26), 500 nM SB-431542 (Selleckchem, cat. S1067), and gastrin (Tocris, cat. 3006).
[…]

[1] = second compound 0.0316 µM, first compound 0.0316 µM
[2] = second compound 0.0316 µM, first compound 0.316 µM
[3] = second compound 0.1 µM, first compound 0.0316 µM
[4] = second compound 0.1 µM, first compound 0.316 µM
[5] = second compound 0.316 µM, first compound 0.0316 µM
[6] = second compound 0.316 µM, first compound 0.316 µM
[7] = second compound 1 µM, first compound 0.0316 µM
[8] = second compound 1 µM, first compound 0.316 µM
[9] = second compound 3.16 µM, first compound 0.0316 µM
[10] = second compound 3.16 µM, first compound 0.316 µM
[11] = second compound 10 µM, first compound 0.0316 µM
[12] = second compound 10 µM, first compound 0.316 µM
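Note: spheroids exposed to compounds for seven days before readout.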

C=CCn1c(=O)c2cnc(Nc3ccc(N4CCN(C)CC4)cc3)nc2n1-c1cccc(C(C)(C)O)n1 + CN(C)c1ccc(Nc2c3ccc(NC(=O)CCN4CCCC4)cc3nc3cc(NC(=O)CCN4CCCC4)ccc23)cc1
IC50 (second compound 0.0316 µM): > 10 µM | IC50 (second compound 0.1 µM): > 10 µM | IC50 (second compound 0.316 µM): > 10 µM | IC50 (second compound 1 µM): > 10 µM | IC50 (second compound 3.16 µM): 8.77 µM | IC50 (second compound 10 µM): 5.2 µM | viability, T/C [1]: 104% | viability, T/C (second compound 0.0316 µM, first compound 0.1 µM): 104% | viability, T/C [2]: 87.5% | viability, T/C (second compound 0.0316 µM, first compound 1 µM): 83.2% | viability, T/C (second compound 0.0316 µM, first compound 3.16 µM): 66.6% | viability, T/C (second compound 0.0316 µM, first compound 10 µM): 61.7% | viability, T/C [3]: 97.8% | viability, T/C (second compound 0.1 µM, first compound 0.1 µM): 93.9% | viability, T/C [4]: 93.2% | viability, T/C (second compound 0.1 µM, first compound 1 µM): 77.4% | viability, T/C (second compound 0.1 µM, first compound 3.16 µM): 71.2% | viability, T/C (second compound 0.1 µM, first compound 10 µM): 59.3% | viability, T/C [5]: 101% | viability, T/C (second compound 0.316 µM, first compound 0.1 µM): 89.1% | viability, T/C [6]: 85.9% | viability, T/C (second compound 0.316 µM, first compound 1 µM): 85.2% | viability, T/C (second compound 0.316 µM, first compound 3.16 µM): 72.8% | viability, T/C (second compound 0.316 µM, first compound 10 µM): 53.3% | viability, T/C [7]: 95.5% | viability, T/C (second compound 1 µM, first compound 0.1 µM): 103% | viability, T/C [8]: 81.9% | viability, T/C (second compound 1 µM, first compound 1 µM): 77.2% | viability, T/C (second compound 1 µM, first compound 3.16 µM): 66.9% | viability, T/C (second compound 1 µM, first compound 10 µM): 52.3% | viability, T/C [9]: 95.2% | viability, T/C (second compound 3.16 µM, first compound 0.1 µM): 91.3% | viability, T/C [10]: 87.9% | viability, T/C (second compound 3.16 µM, first compound 1 µM): 80.9% | viability, T/C (second compound 3.16 µM, first compound 3.16 µM): 63.8% | viability, T/C (second compound 3.16 µM, first compound 10 µM): 48.3% | viability, T/C [11]: 91.6% | viability, T/C (second compound 10 µM, first compound 0.1 µM): 84.1% | viability, T/C [12]: 82.3% | viability, T/C (second compound 10 µM, first compound 1 µM): 67.8% | viability, T/C (second compound 10 µM, first compound 3.16 µM): 56.4% | viability, T/C (second compound 10 µM, first compound 10 µM): 42%

Cc1[nH]c2ccccc2c1CCNCc1ccc(/C=C/C(=O)NO)cc1 + CN(C)c1ccc(Nc2c3ccc(NC(=O)CCN4CCCC4)cc3nc3cc(NC(=O)CCN4CCCC4)ccc23)cc1
IC50 (second compound 0.0316 µM): > 0.316 µM | IC50 (second compound 0.1 µM): > 0.316 µM | IC50 (second compound 0.316 µM): > 0.316 µM | IC50 (second compound 1 µM): > 0.316 µM | IC50 (second compound 3.16 µM): > 0.316 µM | IC50 (second compound 10 µM): > 0.316 µM | viability, T/C (second compound 0.0316 µM, first compound 0.000999 µM): 105% | viability, T/C (second compound 0.0316 µM, first compound 0.00316 µM): 111% | viability, T/C (second compound 0.0316 µM, first compound 0.00999 µM): 106% | viability, T/C [1]: 101% | viability, T/C (second compound 0.0316 µM, first compound 0.0999 µM): 106% | viability, T/C [2]: 72.2% | viability, T/C (second compound 0.1 µM, first compound 0.000999 µM): 119% | viability, T/C (second compound 0.1 µM, first compound 0.00316 µM): 93.9% | viability, T/C (second compound 0.1 µM, first compound 0.00999 µM): 112% | viability, T/C [3]: 99.3% | viability, T/C (second compound 0.1 µM, first compound 0.0999 µM): 97.3% | viability, T/C [4]: 69.7% | viability, T/C (second compound 0.316 µM, first compound 0.000999 µM): 98.2% | viability, T/C (second compound 0.316 µM, first compound 0.00316 µM): 97.5% | viability, T/C (second compound 0.316 µM, first compound 0.00999 µM): 95.2% | viability, T/C [5]: 96.5% | viability, T/C (second compound 0.316 µM, first compound 0.0999 µM): 105% | viability, T/C [6]: 78.4% | viability, T/C (second compound 1 µM, first compound 0.000999 µM): 97.8% | viability, T/C (second compound 1 µM, first compound 0.00316 µM): 106% | viability, T/C (second compound 1 µM, first compound 0.00999 µM): 98.8% | viability, T/C [7]: 108% | viability, T/C (second compound 1 µM, first compound 0.0999 µM): 98% | viability, T/C [8]: 68% | viability, T/C (second compound 3.16 µM, first compound 0.000999 µM): 93.4% | viability, T/C (second compound 3.16 µM, first compound 0.00316 µM): 101% | viability, T/C (second compound 3.16 µM, first compound 0.00999 µM): 101% | viability, T/C [9]: 92.8% | viability, T/C (second compound 3.16 µM, first compound 0.0999 µM): 86.8% | viability, T/C [10]: 61.1% | viability, T/C (second compound 10 µM, first compound 0.000999 µM): 87.5% | viability, T/C (second compound 10 µM, first compound 0.00316 µM): 85.9% | viability, T/C (second compound 10 µM, first compound 0.00999 µM): 94.7% | viability, T/C [11]: 82.6% | viability, T/C (second compound 10 µM, first compound 0.0999 µM): 91.1% | viability, T/C [12]: 61.1%
